Assay type in all cases: cell-based
The test system of assay [1] is alpha-smooth muscle actin (α-SMA). Description: Inhibition of TGF-β induced expression of alpha-smooth muscle actin in CFSC cells (western blot). The following applies: compound at 10 μM, TGF-β (10 ng/mL), 24 hours. The procedure:
The ability of a compound to inhibit the TGF-β induced expression of alpha-smooth muscle actin (α-SMA) was evaluated in CCl4-treated fat storing (CFSC) cells. α-SMA is considered as a reliable marker of hepatic stellate cell activation and a key biomarker for liver fibrosis.
CFSC cells maintained in a DMEM medium supplemented with 10% fetal bovine serum were seeded to 12-well culture dishes and grown to a confluence of 60-70% the next day. Culture was changed to a serum-free DMEM medium and the cells were treated with the compound at 10 μM in the presence of TGF-β (10 ng/mL). The cells were incubated for another 24 hours. All culture was maintained at 37° C. in 5% carbon dioxide.
An NP-40 lysate solution (50 mM Tris, pH 7.4, 150 mM NaCl, 1% NP-40) with EDTA free cocktail added was used to lyse the cells on ice for 30 min. The lysate was collected and centrifuged at 4° C. for 10 min at 12,000 rpm. The pellet was discarded and the supernatant was transferred to a new tube. The cell lysate was loaded with 5× loading buffer and boiled for 10 min, resolved by 10% SDS-polyacrylamide gel electrophoresis (SDS-PAGE), and transferred to a PVDF membrane. The membrane was blocked with 5% skim milk in Tris-buffered saline and TWEEN® 20 (TBST; 10 mM Tris-HCl, pH 8.0, 150 mM NaCl, 0.1% TWEEN® 20) for 1 h at room temperature and then incubated with α-SMA and β-actin antibodies overnight at 4° C. After washing twice with TBST, the membrane was probed with a […] anti-immunoglobulin (1:5000 dilution) for 1 h at room temperature. After two subsequent rinses in TBST, immunoreactive products were reacted with ECL and visualized by a UVP CHEMSTUDIO™ imaging system. The western blotting bands are quantitated using an ImageJ software. The percentage of inhibition was obtained by calculating the percentage decrease in the band intensity compared to the one treated with TGF-β only.
The results are summarized in Table 1, where A represents a value no less than 80/% inhibition, B represents a value less than 80% but no less than 50% inhibition, C represents a value less than 50% but no less than 30% inhibition, and D represents a value less than 30% inhibition with a compound at 10 μM.
On the technique in general: A western blot detects proteins with antibodies after separation by electrophoresis.

The test system of assay [2] is A431 (epidermoid carcinoma). Description: Antiproliferative activity, CCK-8 cell viability. The following applies: Homo sapiens, A-431, 72 h, read-out: Inhibition of Cancerous Cells, A431; for inhibition at 3.3 µM: compound concentration of 3.3 μM; for inhibition at 10 µM: compound concentration of 10 μM; for inhibition at 30 µM: compound concentration of 30 μM. The method, then:
(§1) The antiproliferative activity of a compound was determined in the following cell lines: MDA-MB-231 (breast cancer), HepG2 (liver cancer), SW480 (colon cancer), B16F10 (malignant melanoma), A431 (epidermoid carcinoma), A549 (lung adenocarcinoma), and HeLa (cervical cancer). MDA-MB-231, HepG2, SW480, B16F10, and A431 cells were cultured in Dulbecco's modified Eagle's medium (DMEM) containing 10% fetal bovine serum (FBS). HeLa cells were cultured in MEM/EBSS (MEM) containing 10% FBS. A549 cells were maintained in Kaighn's modification of Ham's F-12 medium containing 10% FBS. The Cell Counting Kit-8 (CCK-8) assay was used to determine the cell viability of cells following treatment with the compound.
(§2) Briefly, cells were seeded in a 96-well plate at a density of 2,000-5,000 cells/well. Following attachment, the cells were treated with the compound in media at a compound concentration of 3.3 μM, 10 μM, or 30 μM, or DMSO as a control. After the cells were incubated at 37° C. for 72 h, the CCK-8 solution (10 μL) was added to each well. After incubation at 37° C. for 4 h, the absorbance value of each well was determined using a multi-well plate reader at 450 nm. The percentage of cell viability was determined with respect to the DMSO-treated cells. The results were summarized in Table 2-4 below, wherein A represents no less than 50% inhibition of cell growth; B represents less than 50% but no less than 30% inhibition of cell growth; C represents less than 30% inhibition of cell growth.

For assay [3], the system named is A549 (lung adenocarcinoma). Description: Antiproliferative activity, CCK-8 cell viability. The following applies: Homo sapiens, 72 h, read-out: Inhibition of Cancerous Cells, A549; for inhibition at 3.3 µM: compound concentration of 3.3 μM; for inhibition at 10 µM: compound concentration of 10 μM; for inhibition at 30 µM: compound concentration of 30 μM. The method, then:
as §1, §2

Assay [4] concerns B16F10 (malignant melanoma). Description: Antiproliferative activity, CCK-8 cell viability. The settings on record: Mus musculus, B16-F10, 72 h, read-out: Inhibition of Cancerous Cells, B16F10; for inhibition at 3.3 µM: compound concentration of 3.3 μM; for inhibition at 10 µM: compound concentration of 10 μM; for inhibition at 30 µM: compound concentration of 30 μM. The method, then:
as §1, §2

For another assay, the system named is HeLa (cervical cancer). Description: Antiproliferative activity, CCK-8 cell viability. The settings on record: Homo sapiens, 72 h, read-out: Inhibition of Cancerous Cells, HELA; for inhibition at 3.3 µM: compound concentration of 3.3 μM; for inhibition at 10 µM: compound concentration of 10 μM; for inhibition at 30 µM: compound concentration of 30 μM. The procedure: as §1, §2

For the next assay, the system named is HepG2 (liver cancer). Description: Antiproliferative activity, CCK-8 cell viability. The settings on record: Homo sapiens, 72 h, read-out: Inhibition of Cancerous Cells, HepG2; for inhibition at 3.3 µM: compound concentration of 3.3 μM; for inhibition at 10 µM: compound concentration of 10 μM; for inhibition at 30 µM: compound concentration of 30 μM. The method, then:
as §1, §2

Assay [5] relates to MDA-MB-231 (breast cancer). Description: Antiproliferative activity, CCK-8 cell viability. The settings on record: Homo sapiens, 72 h, read-out: Inhibition of Cancerous Cells, MDA-MB-231; for inhibition at 3.3 µM: compound concentration of 3.3 μM; for inhibition at 10 µM: compound concentration of 10 μM; for inhibition at 30 µM: compound concentration of 30 μM. The procedure:
as §1, §2

The subject of a further assay is SW480 (colon cancer). Description: Antiproliferative activity, CCK-8 cell viability. The following applies: Homo sapiens, 72 h, read-out: Inhibition of Cancerous Cells, SW480; for inhibition at 3.3 µM: compound concentration of 3.3 μM; for inhibition at 10 µM: compound concentration of 10 μM; for inhibition at 30 µM: compound concentration of 30 μM. The procedure:
as §1, §2

These results are taken from patent US20240116845A1, “INDENE COMPOUNDS, PHARMACEUTICAL COMPOSITIONS THEREOF, AND THEIR THERAPEUTIC APPLICATIONS” (NucMito Pharmaceuticals Co., Ltd., priority 2021, published 2024).

The structures appear in SMILES notation.

In general, inhibition refers to the change of the read-out against control, counted positive when it falls. For `CC1=C(CC(=O)O)c2cc(F)ccc2/C1=C\c1ccccc1Oc1ccccc1` [Compound D19, 2-[(1Z)-5-Fluoro-1-(2-(phenoxy)benzylidene)-2-methyl-1H-inden-3-yl]-acetic acid], the inhibition at 10 µM in assay [1] is under 30%; in assay [2] it was at least 50%; in assay [3], at least 50%; in assay [4], 30 to 50%; in the assay on HeLa (cervical cancer), at least 50%; with HepG2 (liver cancer), at least 50%. Further, the figures for the inhibition at 10 µM (in assay [5]; in the assay on SW480 (colon cancer)) were under 30% and at least 50%, respectively. In addition, the inhibition at 3.3 µM is at least 50% in assay [2]; 30 to 50% in assay [3]; under 30% in assay [4]; 30 to 50% in the assay on HeLa (cervical cancer); at least 50% in the assay with HepG2 (liver cancer); under 30% in assay [5]. In the assay with SW480 (colon cancer), the inhibition at 3.3 µM was at least 50%. The inhibition at 30 µM (in assay [2]; in assay [3]; in assay [4]; in the assay on HeLa (cervical cancer); in the assay on HepG2 (liver cancer); in assay [5]) was at least 50% throughout. Further, the inhibition at 30 µM with SW480 (colon cancer) was at least 50%.
For `CC1=C(CC(=O)O)c2cc(F)ccc2/C1=C\c1cccc(COc2ccc(F)c(F)c2)c1` [Compound A20, 2-[(1Z)-1-({3-[(3,4-Difluorophenoxy)methyl]phenyl}methylidene)-5-fluoro-2-methyl-1H-inden-3-yl]acetic acid], the inhibition at 10 µM in assay [1] was at least 80%; in assay [2] it was at least 50%; in assay [3], 30 to 50%; in assay [4], 30 to 50%; with HeLa (cervical cancer), 30 to 50%; in the assay on HepG2 (liver cancer), at least 50%. The inhibition at 10 µM is at least 50% in assay [5] and 30 to 50% with SW480 (colon cancer). Also, the inhibition at 3.3 µM in assay [2] was at least 50%; in assay [3], under 30%; in assay [4] it was 30 to 50%; in the assay on HeLa (cervical cancer), 30 to 50%; with HepG2 (liver cancer) it was at least 50%; in assay [5], at least 50%. In addition, the inhibition at 3.3 µM in the assay with SW480 (colon cancer) was under 30%. The inhibition at 30 µM (in assay [2]; in assay [3]; in assay [4]; in the assay with HeLa (cervical cancer); with HepG2 (liver cancer); in assay [5]) was at least 50% in each case. Besides, in the assay with SW480 (colon cancer), the inhibition at 30 µM is at least 50%.
As to `CC1=C(CC(=O)O)c2cc(F)ccc2/C1=C\c1cccc(COc2ccc(C(C)(C)C)cc2)c1` [Compound A22, 2-[(1Z)-1-({3-[(4-Tert-butylphenoxy)methyl]phenyl}methylidene)-5-fluoro-2-methyl-1H-inden-3-yl]acetic acid], the inhibition at 10 µM was at least 80% in assay [1]; at least 50% in assay [2]; 30 to 50% in assay [3]; at least 50% in assay [4]; under 30% with HeLa (cervical cancer); at least 50% in the assay with HepG2 (liver cancer). Moreover, the inhibition at 10 µM (in assay [5]; with SW480 (colon cancer)) was at least 50% each time. Also, the inhibition at 3.3 µM in assay [2] was at least 50%; in assay [3], under 30%; in assay [4], at least 50%; in the assay with HeLa (cervical cancer), under 30%; in the assay on HepG2 (liver cancer), 30 to 50%; in assay [5], at least 50%. Further, the inhibition at 3.3 µM with SW480 (colon cancer) lay within 30 to 50%. Moreover, the inhibition at 30 µM (in assay [2]; in assay [3]; in assay [4]; with HeLa (cervical cancer); in the assay with HepG2 (liver cancer); in assay [5]) was at least 50% throughout. For the same compound, the inhibition at 30 µM in the assay with SW480 (colon cancer) was at least 50%.
